What was measured:
rat platelet aggregation = assay: Inhibitory action on rat platelet aggregation in vitro (ADP-induced, platelet-rich plasma); assay type: cell-based; conditions: SD rat PRP, ADP 2 μmol/L; relative activity from IC50, activity of IC50 value of PGE1 = 100
Procedure: Experimental Example 2: Evaluation of Inhibitory Action on Rat Platelet Aggregation In Vitro (1) Preparation of Rat Platelet-Rich Plasma In the same manner as in the above-mentioned Experimental Example 1(1), blood samples were collected from the abdominal artery of 8- to 9-week-old male SD rats. PRP was diluted with PPP and the number of platelet was adjusted to 63.2×10^4/μL. (2) Measurement of Platelet Aggregation Ability In the same manner as in the above-mentioned Experimental Example 1(2) except that the final concentration of ADP was 2 μmol/L, the compound of the present invention, prostaglandin E1 (PGE1:positive control substance) or vehicle control was added as a test substance, and the maximum response of aggregation was measured. (3) Evaluation of Platelet Aggregation Inhibitory Action In the same manner as in the above-mentioned Experimental Example 1(3), IC50 values were determined from the aggregation inhibition ratio of the test substance, and the relative activity (%) of each test substance was calculated by defining the activity of IC50 value of PGE1 as 100.

[1] = tested on: rat cauda equine blood flow; assay: Increasing effect on rat cauda equine blood flow (intravenous infusion, laser Doppler); assay type: in vivo; conditions: Wistar rat, tail vein infusion 10 min; relative activity from ED20 (dose increasing cauda equine blood flow by 20%), limaprost = 100
Procedure: Experimental Example 4: Evaluation of Increasing Effect on rat Cauda Equine Blood Flow
(1) Administration of Test Substance
The compound of the present invention or limaprost (positive control substance) as a test substance was injected at 0.263, 0.789 and 2.63 nmol/kg in principle to Slc:Wistar male rats (body weight: about 200-250 g) from the tail vein at a flow rate of 0.2 mL/min for 10 min with an infusion pump (model 11, Harvard Apparatus). A vehicle (1 vol % DMSO-physiological saline) was similarly injected to the control group (5-6 […] in each group).
(2) Measurement of Cauda Equine Blood Flow
The rats were fixed in a prone position under halothane anesthesia and kept warm by a heater (Nippon Medical & Chemical Instruments Co., Ltd.). The lower back of the rats was shaved, dissected to expose the spine, the vertebral arch of the fifth lumbar vertebra was excised and cauda equina was exposed. The cauda equine blood flow was measured by a laser Doppler blood flow meter (TBF-LN1, Unique Medical Co., Ltd.) via a non-contact type probe (LP-NC special type, Unique Medical Co., Ltd.) fixed perpendicularly to a position of the exposed cauda equina upper by about 1 mm from before administration of each test substance until 60 min after the administration. The open wound was filled with liquid paraffin to prevent drying of the exposed cauda equina.
The obtained data was taken into a personal computer via PowerLab8/30 (registered trade mark, ML870, ADInstruments) every 1/400 second, and analyzed using LabChart (registered trade mark, ADInstruments). The analysis time points were before administration (administration 0 min), and 3, 5, 8, 10, 13, 15, 18, 20, 30, 40, 50 and 60 min after administration, or before administration (administration 0 min), and 3, 5, 10, 15, 20, 30, 40, 50 and 60 min after administration. The mean value for 10 seconds at each time point was taken as the measurement value, and the change rate (%) relative to the value before administration was obtained by the following equation. The rate of change (%)=(measurement value at each time point after administration−measurement value before administration)/measurement value before administration×100
Furthermore, difference in the rate of change (%) relative to the control group at each time point [Δ change rate (%)] was calculated by the following equation, and the maximum value of the Δ change rate was taken as the maximum change rate. Δchange rate (%)=change rate of each individual at each time point−mean of change rate of control group
From the maximum change rate at each dose of the test substance, the dose at which the cauda equine blood flow increases by 20% (ED20 value) was determined by linear regression equation, and the relative activity (%) of each test substance was calculated based on the activity of ED20 value of limaprost as 100.

[2] = tested on: human platelet aggregation; assay: Human platelet aggregation inhibitory action in vitro (ADP-induced, platelet-rich plasma); assay type: cell-based; conditions: human PRP, ADP 3 μmol/L; relative activity from IC50, activity of IC50 value of limaprost = 100
Procedure: Experimental Example 1: Evaluation of Human Platelet Aggregation Inhibitory Action In Vitro
(1) Preparation of Human Platelet-Rich Plasma
Using 3.8 w/v % sodium citrate as an anticoagulant, blood samples were collected from human brachial vein at a ratio of sodium citrate solution:blood (volume ratio)=1:9, and an upper layer of platelet-rich plasma (PRP) was collected by centrifugation (120×g, 10 min). Platelet poor plasma (PPP) was prepared from PRP-free blood by centrifugation (1700×g, 10 min). The number of platelets in PRP was measured and adjusted to 25×10^4/μL by diluting with PPP.
(2) Measurement of Platelet Aggregation Ability
The platelet aggregation ability was measured by a platelet aggregometer (PRP313 M, IMI Co., Ltd.) according to the method of Born (Nature, 1962, vol. 194, pp. 927-929). PRP (190 μL) was placed in a glass cuvette and mounted on the platelet aggregometer. Then, 5 μL of the compound of the present invention, limaprost (positive control substance) or vehicle control (0.25 vol % dimethyl sulfoxide [DMSO]) was added as a test substance, and the mixture was incubated at 37° C. for 10 min. ADP (LMS Co., Ltd.) (5 μL) as a platelet aggregation agent was added at 3 μmol/L in a final concentration to cause aggregation, and the maximum response of the aggregation was measured.
(3) Evaluation of Inhibitory Action on Platelet Aggregation
The aggregation inhibition ratio of a test substance was determined by defining the maximum aggregation ratio of control as 100%, and IC50 value was determined by using “Dx calculation (linear fitting): non-logit transformation” of SAS System Version 9.1.3 (Stat Preclinica Client Ver. 1.1 SAS Institute Japan, Ltd.). Furthermore, the relative activity (%) of each test substance was calculated by defining the activity of IC50 value of limaprost as 100.

[3] = tested on: guinea pig platelet aggregation; assay: Persistent inhibitory action on guinea pig platelet aggregation ex vivo after single oral dose; assay type: in vivo; conditions: for AUC: 1-inhibition 0 hr / AUC: 6-inhibition 0 hr: AUC of maximum aggregation inhibition ratio (%) vs time (hr), oral IC50 dose; for AUC: 1-inhibition 0 hr: from 1 hr after administration to inhibition 0 hr; for AUC: 6-inhibition 0 hr: from 6 hr after administration to inhibition 0 hr; for Inhibition 0 hr: assumed time at which maximum aggregation inhibition ratio became 0%, single oral dose at IC50 dose; for Inhibition 0 hr / single oral dose showing the IC50 value: guinea pig; for single oral dose showing the IC50 value: blood collected 4 hr later, ADP 0.5 μmol/L; for AUC: 1-inhibition 0 hr (% relative to limaprost) / AUC: 6-inhibition 0 hr (% relative to limaprost): value in brackets, limaprost = 100
Procedure: Experimental Example 3: Evaluation of Persistent Inhibitory Action on Guinea Pig Platelet Aggregation Ex Vivo
(1) Measurement of IC50 Value
As a test substance, a single oral dose of the compound of the present invention (3 doses of 79, 132 and 263 nmol/kg), limaprost (positive control substance: 3 doses of 79, 263 and 789 nmol/kg) or vehicle control (water for injection containing 0.26 vol % DMSO) was administered at 10 mL/kg to 4- to 10-week-old male Hartley guinea pigs. Blood samples were collected from the abdominal artery 4 hr later, platelet aggregation ability was measured, and the IC50 value was calculated from the aggregation inhibitory activity (aggregation was induced by 0.5 μmol/L ADP) in the same manner as in the above-mentioned Experimental Example 1(3).
(2) Administration of Test Substance and Preparation of Platelet-Rich Plasma
Blood samples were collected from the abdominal artery of the guinea pig at 1, 2, 4, 6, 10, 16 and 24 hr later. PRP was diluted with PPP and the number of platelet was adjusted to about 60×10^4/μL in the same manner as in the above-mentioned Experimental Example 1(1) (n=3−4).
(3) Measurement of Platelet Aggregation
In the same manner as in the above-mentioned Experimental Example 1(2), the platelet aggregation ability was measured according to the method of Born. PRP (190 μL) was placed in a glass cuvette, mounted on the platelet aggregometer and incubated at 37° C. for 10 min. ADP (10 μL) as platelet aggregation agent was added at 0.5 μmol/L in a final concentration to cause aggregation, and the maximum reaction of the aggregation was measured.
(4) Evaluation of Persistent Inhibitory Action on Platelet Aggregation
The maximum aggregation inhibition ratio of the test substance based on the maximum aggregation inhibition ratio of the control group as 0% was determined from the maximum coagulation ratio of the control group and the maximum coagulation ratio of the test substance when IC50 values were calculated. […] In addition, the assumed time at which the maximum aggregation inhibition ratio became 0% on the graph was determined as the time at which inhibition of aggregation disappeared (inhibition 0 hr).

single oral dose showing the IC50 value [3] [nmol/kg]	Structure (SMILES)	Relative activity (%) (rat platelet aggregation)	Relative activity (%) [1] [%]	Relative activity (%) [2] [%]	AUC: 1-inhibition 0 hr [3] [%·h]	AUC: 6-inhibition 0 hr [3] [%·h]	Inhibition 0 hr [3] [h]	AUC: 1-inhibition 0 hr (% relative to limaprost) [3] [%]	AUC: 6-inhibition 0 hr (% relative to limaprost) [3] [%]
	CCC#CC[C@H](C)C(O)/C=C/[C@H]1[C@H](O)CC(=O)[C@@H]1CCSCCCC(=O)OC (mixture of isomers) [compound (1)-1, methyl 4-((2-((1R,2R,3R)-3-hydroxy-2-((1E,3RS,4S)-3-hydroxy-4-methylnon-1-en-6-yn-1-yl)-5-oxocyclopentyl)ethyl)thio)butanoate]	169							
	CCC#CC[C@H](C)C(O)/C=C/[C@H]1[C@H](O)CC(=O)[C@@H]1CCSC/C=C/C(=O)OC (mixture of isomers) [compound (1)-2, methyl (2E)-4-((2-((1R,2R,3R)-3-hydroxy-2-((1E,3RS,4S)-3-hydroxy-4-methylnon-1-en-6-yn-1-yl)-5-oxocyclopentyl)ethyl)thio)but-2-enoate]	62							
	CCC#CC[C@H](C)[C@H](O)/C=C/[C@H]1[C@H](O)CC(=O)[C@@H]1CCCCCCC(=O)OCc1oc(=O)oc1C [compound (1)-4, (5-methyl-2-oxo-1,3-dioxol-4-yl)methyl 7-((1R,2R,3R)-3-hydroxy-2-((1E,3S,4S)-3-hydroxy-4-methylnon-1-en-6-yn-1-yl)-5-oxocyclopentyl)heptanoate]		147	643					
	CCC#CC[C@H](C)[C@H](O)/C=C/[C@H]1[C@H](O)CC(=O)[C@@H]1CCCCCCC(=O)OCC(=O)C(C)(C)C [compound (1)-5, 3,3-dimethyl-2-oxobutyl 7-((1R,2R,3R)-3-hydroxy-2-((1E,3S,4S)-3-hydroxy-4-methylnon-1-en-6-yn-1-yl)-5-oxocyclopentyl) heptanoate]			161					
	CCC#CC[C@H](C)[C@H](O)/C=C/[C@H]1[C@H](O)CC(=O)[C@@H]1CCCCCCC(=O)O [compound (1)-6, 7-((1R,2R,3R)-3-hydroxy-2-((1E,3S,4S)-3-hydroxy-4-methylnon-1-en-6-yn-1-yl)-5-oxocyclopentyl)heptanoic acid]		383	923					
168	CCC#CC[C@H](C)[C@H](O)/C=C/[C@H]1[C@H](O)CC(=O)[C@@H]1CCCC/C=C/C(=O)O [compound (1)-7, (2E)-7-((1R,2R,3R)-3-hydroxy-2-((1E,3S,4S)-3-hydroxy-4-methylnon-1-en-6-yn-1-yl)-5-oxocyclopentyl)hept-2-enoic acid]		375	1319	713	526	>24	202	359
178	C[C@@H](CC#CC1CC1)[C@H](O)/C=C/[C@H]1[C@H](O)CC(=O)[C@@H]1CCCCCCC(=O)O [compound (1)-9, 7-((1R,2R,3R)-2-((1E,3S,4S)-7-cyclopropyl-3-hydroxy-4-methylhept-1-en-6-yn-1-yl)-3-hydroxy-5-oxocyclopentyl)heptanoic acid]		311	1200	627	401	19.7	178	273
187	C[C@@H](CC#CC1CC1)[C@H](O)/C=C/[C@H]1[C@H](O)CC(=O)[C@@H]1CCCC/C=C/C(=O)O [compound (1)-10, (2E)-7-((1R,2R,3R)-2-((1E,3S,4S)-7-cyclopropyl-3-hydroxy-4-methylhept-1-en-6-yn-1-yl)-3-hydroxy-5-oxocyclopentyl)hept-2-enoic acid]		550	1481	719	508	>24	204	346
266	CCCC[C@H](C)C[C@H](O)/C=C/[C@H]1[C@H](O)CC(=O)[C@@H]1CCCC/C=C/C(=O)O [limaprost, (2E)-7-((1R,2R,3R)-3-hydroxy-2-((1E,3S,5S)-3-hydroxy-5-methylnon-1-en-1-yl)-5-oxocyclopentyl)hept-2-enoic acid, reference compound]		100	100	353	147	12.1	100	100

From US10494338B2, “Prostaglandin derivative” (AGC INC., priority 2016, dated 2019)
